The numbers were not newly measured in patent publication US5276058A, “3,4-dihydroxychalcone derivatives” (Nippon Hypox Laboratories Incorporated, priority 1993, dated 1994), which cites them from elsewhere.

SMILES strings stand for the structures.

The conditions of data set [1]: JP,A 63-297847; cited from earlier work.
The conditions of data set [2]: JP,A 61-76433; cited from earlier work.

As for `O=C(/C=C/c1ccc(O)c(O)c1)c1cccc(O)c1O` [2',3',3,4-tetrahydroxychalcone], the anti-inflammatory activity entry in data set [1] is “extensive anti-inflammatory activity”.

Turning to `COc1ccc(C(=O)C=Cc2ccc(O)c(O)c2)c(OC)c1OC` [3-(3,4-dihydroxyphenyl)-1-(2,3,4-trimethoxyphenyl)-2-propen-1-one], the antiallergic activity result in data set [2] is “antiallergic activity”.
